Test results published in patent publication US11970498B2, “CDK2 inhibitors” (BLUEPRINT MEDICINES CORPORATION, priority 2021, dated 2024).

Key:
[1] = molecular target: T1, CDK1/Cyclin B1, GST-tag (Homo sapiens, UniProt P06493); assay: CDK1/Cyclin B1 biochemical phosphorylation assay (Caliper mobility shift); details: apparent IC50; 1.0 mM ATP or ATP Km; 1.5 nM enzyme; 25° C.
T1 construct: GST
Method in brief: (§1)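 Caliper electrophoretic separation of substrate and phosphopeptide gave apparent IC50s. Enzymes: CDK1/Cyclin B1 GST-tag 1.5 nM, CDK2/Cyclin E 1.25 nM; ATP 1.0 mM or at Km; 7.5 µM FL-peptide; pH 7.5 HEPES buffer, 1% DMSO; room temperature until 10–20% phosphorylated, then EDTA quench.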

[2] = molecular target: CDK2/Cyclin E (Homo sapiens, UniProt P24941); assay: CDK2/Cyclin E biochemical phosphorylation assay (Caliper mobility shift); details: apparent IC50; 1.0 mM ATP or ATP Km; 1.25 nM enzyme; 25° C.; read-out: CDK2/cyclin E1 IC50
Method in brief: as §1

T1 sequence (P06493 whole entry): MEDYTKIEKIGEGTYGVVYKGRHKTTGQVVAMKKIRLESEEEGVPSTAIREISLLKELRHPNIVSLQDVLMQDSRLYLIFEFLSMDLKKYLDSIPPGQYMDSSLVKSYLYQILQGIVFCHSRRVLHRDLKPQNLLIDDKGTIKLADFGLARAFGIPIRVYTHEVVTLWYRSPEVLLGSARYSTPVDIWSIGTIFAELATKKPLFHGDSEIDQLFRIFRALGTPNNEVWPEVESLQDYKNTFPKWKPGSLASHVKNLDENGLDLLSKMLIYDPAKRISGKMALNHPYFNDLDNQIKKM
T1 sequence (P14635 whole entry partner): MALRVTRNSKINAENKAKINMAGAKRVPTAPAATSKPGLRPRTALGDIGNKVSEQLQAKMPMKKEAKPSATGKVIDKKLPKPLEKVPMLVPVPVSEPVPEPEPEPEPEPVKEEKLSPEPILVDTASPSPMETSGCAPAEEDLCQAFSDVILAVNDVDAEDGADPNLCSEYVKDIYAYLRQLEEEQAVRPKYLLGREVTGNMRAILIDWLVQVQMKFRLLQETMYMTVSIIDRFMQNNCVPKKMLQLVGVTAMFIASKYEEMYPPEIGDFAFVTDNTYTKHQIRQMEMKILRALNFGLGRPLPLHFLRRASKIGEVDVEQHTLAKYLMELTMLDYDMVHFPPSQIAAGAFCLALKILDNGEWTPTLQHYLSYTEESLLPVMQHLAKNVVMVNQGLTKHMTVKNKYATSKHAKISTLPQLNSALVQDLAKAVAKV

| SMILES | IC50 [1] | IC50 [2] |
| --- | --- | --- |
| C[C@@H](c1cccnc1)n1nc(Cl)c2ncc(Nc3cc(OC(F)F)[nH]n3)nc21 [Example 61, (S)-3-chloro-N-(5-(difluoromethoxy)-1H-pyrazol-3-yl)-1-(1-(pyridin-3-yl)ethyl)-1H-pyrazolo[3,4-b]pyrazin-6-amine] | ≥ 500 nM | ≤ 10 nM |
| O[C@H]1C[C@H](Cn2ncc3ncc(Nc4cc(OC(F)F)[nH]n4)nc32)C1 [Example 220, (1r,3r)-3-((6-((5-(difluoromethoxy)-1H-pyrazol-3-yl)amino)-1H-pyrazolo[3,4-b]pyrazin-1-yl)methyl)cyclobutan-1-ol] | ≥ 500 nM | 30 to 100 nM |
| FC(F)Oc1cc(Nc2cnc3cnn(CCc4ccncc4)c3n2)n[nH]1 [Example 130, N-(5-(difluoromethoxy)-1H-pyrazol-3-yl)-1-(2-(pyridin-4-yl)ethyl)-1H-pyrazolo[3,4-b]pyrazin-6-amine] | 100 to 500 nM | ≤ 10 nM |
| FC(F)Oc1cc(Nc2cnc3cnn(CC4CC5CCC(C4)O5)c3n2)n[nH]1 (stereo not shown) [Example 99, 1-((8-oxabicyclo[3.2.1]octan-3-yl)methyl)-N-(5-(difluoromethoxy)-1H-pyrazol-3-yl)-1H-pyrazolo[3,4-b]pyrazin-6-amine] | ≥ 500 nM | ≤ 10 nM |
| O[C@H]1CC[C@H](n2ncc3ncc(Nc4cc(OC(F)F)[nH]n4)nc32)CC1 [Example 3, (1r,4r)-4-(6-((5-(difluoromethoxy)-1H-pyrazol-3-yl)amino)-1H-pyrazolo[3,4-b]pyrazin-1-yl)cyclohexan-1-ol] | 100 to 500 nM | ≤ 10 nM |
| C[C@@H]([C@@H]1COCCO1)n1ncc2ncc(Nc3cc(OC(F)F)[nH]n3)nc21 (single isomer, unassigned) [Example 211] | ≥ 500 nM | 30 to 100 nM |
| Fc1nn(Cc2cccnc2)c2nc(Nc3cc(OC(F)F)[nH]n3)cnc12 [Example 120, N-(5-(difluoromethoxy)-1H-pyrazol-3-yl)-3-fluoro-1-(pyridin-3-ylmethyl)-1H-pyrazolo[3,4-b]pyrazin-6-amine] | ≥ 500 nM | ≤ 10 nM |
| FC[C@@H](c1ccccc1)n1ncc2ncc(Nc3cc(OC(F)F)[nH]n3)nc21 (single isomer, unassigned) [Example 89, (R)-N-(5-(difluoromethoxy)-1H-pyrazol-3-yl)-1-(2-fluoro-1-phenylethyl)-1H-pyrazolo[3,4-b]pyrazin-6-amine or (S)-N-(5-(difluoromethoxy)-1H-pyrazol-3-yl)-1-(2-fluoro-1-phenylethyl)-1H-pyrazolo[3,4-b]pyrazin-6-amine] | ≥ 500 nM | ≤ 10 nM |
| C[C@@H](CO)Cn1ncc2ncc(Nc3cc(OC(F)F)[nH]n3)nc21 [Example 198, (R)-3-(6-((5-(difluoromethoxy)-1H-pyrazol-3-yl)amino)-1H-pyrazolo[3,4-b]pyrazin-1-yl)-2-methylpropan-1-ol] | ≥ 500 nM | 30 to 100 nM |
| FC[C@@H](c1ccccn1)n1ncc2ncc(Nc3cc(OC(F)F)[nH]n3)nc21 (single isomer, unassigned) [Example 15, (R)—N-(5-(difluoromethoxy)-1H-pyrazol-3-yl)-1-(2-fluoro-1-(pyridin-2-yl)ethyl)-1H-pyrazolo[3,4-b]pyrazin-6-amine or (S)—N-(5-(difluoromethoxy)-1H-pyrazol-3-yl)-1-(2-fluoro-1-(pyridin-2-yl)ethyl)-1H-pyrazolo[3,4-b]pyrazin-6-amine] | ≥ 500 nM | 30 to 100 nM |
| C[C@@H](c1cccc(F)c1)n1ncc2ncc(Nc3cc(OC(F)F)[nH]n3)nc21 [Example 43, (S)-N-(5-(difluoromethoxy)-1H-pyrazol-3-yl)-1-(1-(3-fluorophenyl)ethyl)-1H-pyrazolo[3,4-b]pyrazin-6-amine] | ≥ 500 nM | ≤ 10 nM |
| C[C@@H]([C@@H]1COCCO1)n1ncc2ncc(Nc3cc(OC(F)F)[nH]n3)nc21 (single isomer, unassigned) [Example 213] | ≥ 500 nM | 10 to 20 nM |
| FC(F)Oc1cc(Nc2cnc3cnn([C@H](C(F)F)C4CCOCC4)c3n2)n[nH]1 (single isomer, unassigned) [Example 28, (S)-1-(2,2-difluoro-1-(tetrahydro-2H-pyran-4-yl)ethyl)-N-(5-(difluoromethoxy)-1H-pyrazol-3-yl)-1H-pyrazolo[3,4-b]pyrazin-6-amine or (R)-1-(2,2-difluoro-1-(tetrahydro-2H-pyran-4-yl)ethyl)-N-(5-(difluoromethoxy)-1H-pyrazol-3-yl)-1H-pyrazolo[3,4-b]pyrazin-6-amine] | ≥ 500 nM | 20 to 30 nM |
| C[C@@H](C1CC1)n1ncc2ncc(Nc3cc(OC(F)F)[nH]n3)nc21 [Example 51, (S)-1-(1-cyclopropylethyl)-N-(5-(difluoromethoxy)-1H-pyrazol-3-yl)-1H-pyrazolo[3,4-b]pyrazin-6-amine] | 100 to 500 nM | ≤ 10 nM |
| O[C@H]1C[C@H](n2ncc3ncc(Nc4cc(OC(F)F)[nH]n4)nc32)C1 (single isomer, unassigned) [Example 146, (1s,3s)-3-(6-((5-(difluoromethoxy)-1H-pyrazol-3-yl)amino)-1H-pyrazolo[3,4-b]pyrazin-1-yl)cyclobutan-1-ol or (1r,3r)-3-(6-((5-(difluoromethoxy)-1H-pyrazol-3-yl)amino)-1H-pyrazolo[3,4-b]pyrazin-1-yl)cyclobutan-1-ol] | ≥ 500 nM | 20 to 30 nM |
| C[C@@H]([C@@H]1COCCO1)n1ncc2ncc(Nc3cc(OC(F)F)[nH]n3)nc21 (single isomer, unassigned) [Example 212] | ≥ 500 nM | > 100 nM |
| CC1(Cn2ncc3ncc(Nc4cc(OC(F)F)[nH]n4)nc32)COC1 [Example 119, N-(5-(difluoromethoxy)-1H-pyrazol-3-yl)-1-((3-methyloxetan-3-yl)methyl)-1H-pyrazolo[3,4-b]pyrazin-6-amine] | ≥ 500 nM | ≤ 10 nM |
| FC(F)Oc1cc(Nc2cnc3cnn(C[C@H]4C[C@@H]4F)c3n2)n[nH]1 (single isomer, unassigned) [Example 160, N-(5-(difluoromethoxy)-1H-pyrazol-3-yl)-1-(((1S,2R)-2-fluorocyclopropyl)methyl)-1H-pyrazolo[3,4-b]pyrazin-6-amine or N-(5-(difluoromethoxy)-1H-pyrazol-3-yl)-1-(((1R,2S)-2-fluorocyclopropyl)methyl)-1H-pyrazolo[3,4-b]pyrazin-6-amine] | ≥ 500 nM | 20 to 30 nM |
| COc1cc(Nc2cnc3cnn([C@H](C)C4CC4)c3n2)n[nH]1 [Example 73, (R)-1-(1-cyclopropylethyl)-N-(5-methoxy-1H-pyrazol-3-yl)-1H-pyrazolo[3,4-b]pyrazin-6-amine] | ≥ 500 nM | 10 to 20 nM |
| C[C@@H](C1CCOCC1)n1nc(F)c2ncc(Nc3cc(OC(F)F)[nH]n3)nc21 [Example 124, (S)-N-(5-(difluoromethoxy)-1H-pyrazol-3-yl)-3-fluoro-1-(1-(tetrahydro-2H-pyran-4-yl)ethyl)-1H-pyrazolo[3,4-b]pyrazin-6-amine] | 100 to 500 nM | ≤ 10 nM |
| FC(F)Oc1cc(Nc2cnc3cnn(C[C@H]4C[C@@H]5[C@H](C4)C5(F)F)c3n2)n[nH]1 [Example 126, 1-(((1R,3r,5S)-6,6-difluorobicyclo[3.1.0]hexan-3-yl)methyl)-N-(5-(difluoromethoxy)-1H-pyrazol-3-yl)-1H-pyrazolo[3,4-b]pyrazin-6-amine] | < 100 nM | ≤ 10 nM |
| C[C@H](c1cccnc1)n1ncc2ncc(Nc3cc(OC(F)F)[nH]n3)nc21 [Example 91, (R)-N-(5-(difluoromethoxy)-1H-pyrazol-3-yl)-1-(1-(pyridin-3-yl)ethyl)-1H-pyrazolo[3,4-b]pyrazin-6-amine] | ≥ 500 nM | 20 to 30 nM |
| C[C@@H]([C@H]1CCCOC1)n1ncc2ncc(Nc3cc(OC(F)F)[nH]n3)nc21 (single isomer, unassigned) [Example 215] | < 100 nM | ≤ 10 nM |
| FC(F)Oc1cc(Nc2cnc3cnn(CC4CCC(F)(F)CC4)c3n2)n[nH]1 [Example 108, 1-((4,4-difluorocyclohexyl)methyl)-N-(5-(difluoromethoxy)-1H-pyrazol-3-yl)-1H-pyrazolo[3,4-b]pyrazin-6-amine] | ≥ 500 nM | ≤ 10 nM |
| C[C@@H](c1cccnc1)n1ncc2ncc(Nc3cc(OC(F)F)[nH]n3)nc21 [Example 1, (S)—N-(5-(difluoromethoxy)-1H-pyrazol-3-yl)-1-(1-(pyridin-3-yl)ethyl)-1H-pyrazolo[3,4-b]pyrazin-6-amine] | 100 to 500 nM | ≤ 10 nM |
| OC1(Cn2ncc3ncc(Nc4cc(OC(F)F)[nH]n4)nc32)CCOCC1 [Example 49, 4-((6-((5-(difluoromethoxy)-1H-pyrazol-3-yl)amino)-1H-pyrazolo[3,4-b]pyrazin-1-yl)methyl)tetrahydro-2H-pyran-4-ol] | 100 to 500 nM | ≤ 10 nM |
| CCOc1cc(Nc2cnc3cnn(CC4CCOCC4)c3n2)n[nH]1 [Example 38, N-(5-ethoxy-1H-pyrazol-3-yl)-1-((tetrahydro-2H-pyran-4-yl)methyl)-1H-pyrazolo[3,4-b]pyrazin-6-amine] | 100 to 500 nM | ≤ 10 nM |
| C[C@@H](c1ccccc1)n1ncc2ncc(Nc3cc(OC(F)F)[nH]n3)nc21 [Example 93, (S)-N-(5-(difluoromethoxy)-1H-pyrazol-3-yl)-1-(1-phenylethyl)-1H-pyrazolo[3,4-b]pyrazin-6-amine] | ≥ 500 nM | ≤ 10 nM |
| O[C@H]1CC[C@@H](n2ncc3ncc(Nc4cc(OC(F)F)[nH]n4)nc32)C1 (single isomer, unassigned) [Example 209] | ≥ 500 nM | > 100 nM |
